Reference: paper PMC6277434, “Discovery of a potent HMG-CoA reductase degrader that eliminates statin-induced reductase accumulation and lowers cholesterol” (Nature Communications, 2018)
Residue numbers refer to the chain shown, from its start.

Key:
[1] = biological target: T1, K89R/K248R HMGCR (Cricetulus griseus, UniProt P00347, K248R/K89R); test: Degradation of transfected K89R/K248R HMGCR in CHO-7 cells; type: cell-based; parameters: expressed in transfected cells; host or cells: CHO-7 (A20); conditions: transfected CHO-7 cells, 5 h
T1 sequence (P00347 1-887 K89R/K248R): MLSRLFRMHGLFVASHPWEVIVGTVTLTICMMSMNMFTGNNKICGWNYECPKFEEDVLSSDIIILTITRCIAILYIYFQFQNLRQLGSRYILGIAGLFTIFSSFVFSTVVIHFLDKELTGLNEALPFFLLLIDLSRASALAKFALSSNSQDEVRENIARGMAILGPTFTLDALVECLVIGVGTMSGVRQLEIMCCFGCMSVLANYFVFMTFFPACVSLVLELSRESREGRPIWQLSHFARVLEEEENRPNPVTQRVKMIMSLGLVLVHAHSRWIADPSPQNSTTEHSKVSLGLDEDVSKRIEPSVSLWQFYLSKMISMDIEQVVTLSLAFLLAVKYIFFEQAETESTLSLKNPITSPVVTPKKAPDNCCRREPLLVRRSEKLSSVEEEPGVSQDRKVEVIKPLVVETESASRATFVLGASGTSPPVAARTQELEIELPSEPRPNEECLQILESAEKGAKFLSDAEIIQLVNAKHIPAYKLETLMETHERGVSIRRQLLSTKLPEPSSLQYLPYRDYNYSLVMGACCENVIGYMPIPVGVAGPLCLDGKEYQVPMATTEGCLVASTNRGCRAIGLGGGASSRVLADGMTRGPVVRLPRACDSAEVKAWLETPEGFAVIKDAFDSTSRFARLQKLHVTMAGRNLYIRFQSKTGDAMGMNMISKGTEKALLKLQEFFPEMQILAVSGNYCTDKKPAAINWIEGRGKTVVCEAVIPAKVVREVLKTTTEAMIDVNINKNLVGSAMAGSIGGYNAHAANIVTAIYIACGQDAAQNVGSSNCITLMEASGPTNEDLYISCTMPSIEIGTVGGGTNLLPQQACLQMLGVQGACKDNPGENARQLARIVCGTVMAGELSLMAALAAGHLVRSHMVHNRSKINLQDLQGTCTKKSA
Procedure: (§1) HMGCR protein of DMSO-treated cells was defined as 100. […] Lysates were immunoprecipitated and pellets were probed for anti-ubiquitin (P4D1) and anti-HMGCR (A9). e CHO-7 cells were transfected with indicated plasmids and treated as in d. Lysates were immunoprecipitated with anti-Flag M2 beads, and pellets were probed for anti-ubiquitin (HA) and anti-HMGCR (Flag). f CHO-7 cells were transfected with indicated plasmids, then treated with Cmpd 81 for 5 h. […] Data are from three independent experiments and presented as mean ± SD. Source data are provided as a Source Data File.
(§2) Cells were harvested and homogenized in the RIPA buffer (50 mM Tris-HCl, pH 8.0, 150 mM NaCl, 2 mM MgCl2, 1.5% NP-40, 0.1% SDS, and 0.5% sodium deoxycholate) supplemented with protease cocktail inhibitor, 10 μM MG-132, 10 μg ml^−1 leupeptin and 1 mM phenylmethylsulfonyl fluoride. The protein concentrations of lysates were determined using BCA method (Beyotime). […] Western blot images were captured by Amersham Imager 600 (GE Healthcare), and integrated optical intensities of each band were quantified by Image-Pro Plus 6 software (Media Cybernetics). […]

[2] = biological target: hERG potassium channel (Homo sapiens, UniProt Q12809); test: hERG electrophysiology patch-clamp assay (CHO-hERG cells, QPatch); conditions: even at 40 μM
[3] = biological target: T2, WT HMGCR (Cricetulus griseus, UniProt P00347); test: Degradation of transfected wild-type HMGCR (with Insig-1) in CHO-7 cells; type: cell-based; conditions: cells co-expressing wild-type HMGCR and Insig-1, 5 h
T2 construct: expressed in transfected cells; host or cells: CHO-7
T2 sequence (P00347 1-887): T1 sequence (P00347 1-887 K89R/K248R) with R89K, R248K
T2 sequence (O15503 1-277 partner): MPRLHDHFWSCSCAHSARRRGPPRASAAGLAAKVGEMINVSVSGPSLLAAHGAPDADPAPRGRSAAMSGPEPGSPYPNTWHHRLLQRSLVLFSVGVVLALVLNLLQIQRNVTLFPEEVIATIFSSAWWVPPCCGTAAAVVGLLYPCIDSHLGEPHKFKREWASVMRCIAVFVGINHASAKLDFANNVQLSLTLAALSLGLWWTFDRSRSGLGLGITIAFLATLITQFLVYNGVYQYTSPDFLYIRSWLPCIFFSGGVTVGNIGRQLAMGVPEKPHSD
Procedure: as §1, §2

Chain of hERG potassium channel (Q12809 whole entry): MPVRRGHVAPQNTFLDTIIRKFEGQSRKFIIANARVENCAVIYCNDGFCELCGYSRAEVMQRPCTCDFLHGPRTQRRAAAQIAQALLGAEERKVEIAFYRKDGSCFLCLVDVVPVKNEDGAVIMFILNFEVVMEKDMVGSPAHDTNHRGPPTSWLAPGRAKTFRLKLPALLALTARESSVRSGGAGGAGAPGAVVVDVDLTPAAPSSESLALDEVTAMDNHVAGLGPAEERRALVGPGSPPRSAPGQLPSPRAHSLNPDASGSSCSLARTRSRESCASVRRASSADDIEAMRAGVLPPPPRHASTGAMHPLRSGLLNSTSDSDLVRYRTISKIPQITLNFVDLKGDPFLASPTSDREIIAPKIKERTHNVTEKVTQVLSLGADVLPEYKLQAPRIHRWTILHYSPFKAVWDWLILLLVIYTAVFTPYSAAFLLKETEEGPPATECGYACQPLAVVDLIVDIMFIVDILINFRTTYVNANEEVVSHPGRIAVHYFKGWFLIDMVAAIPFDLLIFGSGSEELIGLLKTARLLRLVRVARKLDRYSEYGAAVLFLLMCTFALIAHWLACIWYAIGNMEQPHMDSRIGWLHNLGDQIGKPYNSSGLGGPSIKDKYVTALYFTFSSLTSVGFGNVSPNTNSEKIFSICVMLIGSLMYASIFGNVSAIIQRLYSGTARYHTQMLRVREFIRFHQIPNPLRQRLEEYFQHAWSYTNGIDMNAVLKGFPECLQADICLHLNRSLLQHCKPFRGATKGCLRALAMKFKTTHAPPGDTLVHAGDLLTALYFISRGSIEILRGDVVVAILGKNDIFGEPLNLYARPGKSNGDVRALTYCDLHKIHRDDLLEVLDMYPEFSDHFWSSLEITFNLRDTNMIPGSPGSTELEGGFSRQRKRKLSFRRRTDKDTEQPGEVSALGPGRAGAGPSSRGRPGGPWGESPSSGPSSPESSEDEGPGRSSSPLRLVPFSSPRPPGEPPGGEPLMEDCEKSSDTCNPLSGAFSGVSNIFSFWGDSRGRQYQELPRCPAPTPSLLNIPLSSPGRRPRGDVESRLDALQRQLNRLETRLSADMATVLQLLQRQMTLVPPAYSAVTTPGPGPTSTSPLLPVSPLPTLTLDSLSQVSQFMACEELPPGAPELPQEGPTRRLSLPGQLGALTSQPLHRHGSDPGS

## C=CCC(O)(CC=C)CCCC(C)C1CCC2C3C(O)C=C4C(C)(C)C(O)CCC4(C)C3CCC12C (stereo not drawn) [Cmpd 81]
[1]
  degradation of K89R/K248R HMGCR: blunted the effect
[2]
  inhibition of hERG peak tail currents: no inhibition effect
[3]
  protein level of transfected wild-type HMGCR: a reduction of the protein level
